Calls of active or inactive are those of the source. No rule for the calls is given here.
System: CCRIS mutagenicity, Ames/micronucleus/aberration tests
Experiment: CCRIS mutagenicity studies
[1] = Test System: AMES SALMONELLA TYPHIMURIUM, Strain/Indicator: TA100, Metabolic Activation: NONE, Method: STANDARD PLATE

SMILES: CC(C)NCC(O)c1ccc(O)c(O)c1 (configuration not stated)
- mutagenic call (End Point: IN VITRO CHROMOSOMAL ABERRATIONS, Test System: CHINESE HAMSTER OVARY CELLS, Metabolic Activation: NONE): inactive; negative
- mutagenic call (End Point: IN VITRO CHROMOSOMAL ABERRATIONS, Test System: CHINESE HAMSTER OVARY CELLS, Metabolic Activation: RAT, LIVER, S-9, AROCLOR 1254): active; positive
- mutagenic call (Test System: AMES SALMONELLA TYPHIMURIUM, Strain/Indicator: TA98, Metabolic Activation: HAMSTER, LIVER, S-9, AROCLOR 1254, Method: PREINCUBATION): inactive; negative
- mutagenic call (Test System: AMES SALMONELLA TYPHIMURIUM, Strain/Indicator: TA98, Metabolic Activation: NONE, Method: PREINCUBATION): inactive; negative
- mutagenic call (Test System: AMES SALMONELLA TYPHIMURIUM, Strain/Indicator: TA98, Metabolic Activation: RAT, LIVER, S-9, AROCLOR 1254, Method: PREINCUBATION): inactive; negative
- mutagenic call (Test System: AMES SALMONELLA TYPHIMURIUM, Strain/Indicator: TA100, Metabolic Activation: HAMSTER, LIVER, S-9, AROCLOR 1254, Method: PREINCUBATION): inactive; negative
- mutagenic call (Test System: AMES SALMONELLA TYPHIMURIUM, Strain/Indicator: TA100, Metabolic Activation: NONE, Method: PREINCUBATION): inactive; negative
- mutagenic call (Test System: AMES SALMONELLA TYPHIMURIUM, Strain/Indicator: TA100, Metabolic Activation: RAT, LIVER, S-9, AROCLOR 1254, Method: PREINCUBATION): inactive; negative
- mutagenic call (Test System: AMES SALMONELLA TYPHIMURIUM, Strain/Indicator: TA1535, Metabolic Activation: HAMSTER, LIVER, S-9, AROCLOR 1254, Method: PREINCUBATION): inactive; negative
- mutagenic call (Test System: AMES SALMONELLA TYPHIMURIUM, Strain/Indicator: TA1535, Metabolic Activation: NONE, Method: PREINCUBATION): inactive; negative
- mutagenic call (Test System: AMES SALMONELLA TYPHIMURIUM, Strain/Indicator: TA1535, Metabolic Activation: RAT, LIVER, S-9, AROCLOR 1254, Method: PREINCUBATION): inactive; negative
- mutagenic call (Test System: AMES SALMONELLA TYPHIMURIUM, Strain/Indicator: TA1537, Metabolic Activation: HAMSTER, LIVER, S-9, AROCLOR 1254, Method: PREINCUBATION): inactive; negative
- mutagenic call (Test System: AMES SALMONELLA TYPHIMURIUM, Strain/Indicator: TA1537, Metabolic Activation: NONE, Method: PREINCUBATION): inactive; negative
- mutagenic call (Test System: AMES SALMONELLA TYPHIMURIUM, Strain/Indicator: TA1537, Metabolic Activation: RAT, LIVER, S-9, AROCLOR 1254, Method: PREINCUBATION): inactive; negative

SMILES: OCNc1ncnc2c1ncn2[C@@H]1O[C@H](CO)[C@@H](O)[C@H]1O
- mutagenic call (Test System: AMES SALMONELLA TYPHIMURIUM, Strain/Indicator: TA100(TN5-1,8-DNP1011), Metabolic Activation: NONE, Method: STANDARD PLATE): inactive; negative
- mutagenic call (Test System: AMES SALMONELLA TYPHIMURIUM, Strain/Indicator: TA100(TN5-1,8-DNP1012), Metabolic Activation: NONE, Method: STANDARD PLATE): active; positive
- mutagenic call [1]: inactive; negative

SMILES: Cc1ncc(CO)c(CO)c1O
- mutagenic call (Test System: AMES SALMONELLA TYPHIMURIUM, Strain/Indicator: TA97A, Metabolic Activation: NONE, Method: PREINCUBATION): inactive; negative
- mutagenic call (Test System: AMES SALMONELLA TYPHIMURIUM, Strain/Indicator: TA97A, Metabolic Activation: RAT, LIVER, S-9, AROCLOR 1254, Method: PREINCUBATION): inactive; negative
- mutagenic call (Test System: AMES SALMONELLA TYPHIMURIUM, Strain/Indicator: TA102, Metabolic Activation: NONE, Method: PREINCUBATION): inactive; negative
- mutagenic call (Test System: AMES SALMONELLA TYPHIMURIUM, Strain/Indicator: TA102, Metabolic Activation: RAT, LIVER, S-9, AROCLOR 1254, Method: PREINCUBATION): inactive; negative

SMILES: C[C@@H]1O[C@@H]1C
- mutagenic call (Test System: AMES SALMONELLA TYPHIMURIUM, Strain/Indicator: TA100, Metabolic Activation: NONE, Method: FLASK VAPORIZATION): active; positive
- mutagenic call [1]: active; positive
- mutagenic call (Test System: AMES SALMONELLA TYPHIMURIUM, Strain/Indicator: TA100, Metabolic Activation: RAT, LIVER, S-9, AROCLOR 1254, Method: FLASK VAPORIZATION): active; positive
- mutagenic call (Test System: AMES SALMONELLA TYPHIMURIUM, Strain/Indicator: TA1535, Metabolic Activation: NONE, Method: FLASK VAPORIZATION): active; positive
- mutagenic call (Test System: AMES SALMONELLA TYPHIMURIUM, Strain/Indicator: TA1535, Metabolic Activation: NONE, Method: STANDARD PLATE): active; positive
- mutagenic call (Test System: AMES SALMONELLA TYPHIMURIUM, Strain/Indicator: TA1535, Metabolic Activation: RAT, LIVER, S-9, AROCLOR 1254, Method: FLASK VAPORIZATION): active; positive
